Data: patent US8361516B2, “Composition comprising sarsasapogenin” (priority 2006, dated 2013)

How the values were obtained:
3T3-L1 cells [1] = experiment: Residual proliferation capability during the differentiation phase (Hoechst test); type: cell-based; conditions: 3 days with differentiation cocktail
Experimental: The pre-adipocytes undergo a multiplication phase (clonal expansion) before beginning to differentiate.
A product stimulating proliferation would thus enable adipocytes that have already entered the differentiation phase to maintain a replication capability.
Protocol: 3T3-L1 cells were inoculated and cultured to confluence over 4 days (clonal expansion). The conventional differentiation cocktail was added to the culture and the cells were incubated in the absence (control) or in the presence of rising concentrations of sarsasapogenin for 3 days. Following incubation, the cell layers were harvested and subjected to a Hoechst test to quantify cell proliferation vs. the proliferation of the control cells and the cells incubated in the presence of pioglitazone (positive control).

3T3-L1 cells [2] = experiment: Stimulation of differentiation: G3PDH activity; type: cell-based; conditions: mean for n = 3 tests
Experimental: Principle: after an in vivo proliferation phase, the pre-adipocytes begin differentiating under the influence of specific endogenous factors (in particular, glucocorticoids and insulin). In vitro, those factors are included in the conventional cocktail used to trigger differentiation.
The maintenance or amplification of differentiation when the cells are subsequently cultured in a simple maintenance medium is determined by assay of glycerol-3-phosphate dehydrogenase, G3PDH (or GPDH). The enzyme is involved in energy metabolism. Its activity regularly increases through the differentiation process.
Protocol: as previously, 3T3-L1 cells were cultured to confluence, then underwent differentiation induction with the conventional cocktail and were incubated in the absence or presence of sarsasapogenin at various concentrations. After 3 days of incubation, the differentiation cocktail was replaced by culture maintenance medium in the presence or absence of sarsasapogenin. After 3 days of incubation, the cell layers were harvested and G3PDH activity determined.

human adipocytes = experiment: Stimulation of lipid uptake in human adipocytes; type: cell-based
Text: 4. Stimulation of Lipid Uptake by 3T3-L1 Cells and Human Adipocytes
The results were reproduced using human adipocytes.

3T3-L1 cells [3] = experiment: Stimulation of lipid uptake, red oil staining with image analysis; type: cell-based; conditions: mean for n = 3 tests
Experimental: Principle: adipocyte differentiation is a decisive stage in the transformation of pre-adipocytes into lipid-laden mature adipocytes. The intracellular accumulation of lipids is determined by conventional red oil staining (neutral lipid marker). The stained lipids can then be quantified under the microscope.
Protocol: 3T3-L1 cells were inoculated and cultured for 4 days (multiplication). This was followed by a differentiation phase (incubation with the conventional differentiation cocktail) and a maturation phase (maturation cocktail) in the absence or presence of sarsasapogenin at various concentrations.
At the end of that period, the cells were washed, fixed and stained with red oil. The cell layers were digitally photographed and the red staining quantified by image analysis.
The percentage red oil areas, shown in table 1, were expressed relative to the untreated control cells and the test was validated by comparison with pioglitazone (10 μM), the positive control for differentiation stimulation.

[4] = tested on: Human pre-adipocyte cells; experiment: Gene expression profile, effect on differentiation (pre-adipocyte culture, CodeLink Whole Genome chips); type: cell-based
Experimental: (§1) Two studies were conducted: one addressed the effect of sarsasapogenin on differentiation using a pre-adipocyte culture; the other addressed the effect of sarsasapogenin on mature adipocytes.
(§2) Human pre-adipocyte cells were inoculated and cultured (multiplication) for 5 days. Then: • either the cells were exposed to the induction medium in the presence or absence of sarsasapogenin for 8 or 24 h before culture arrest (study of the effect of sarsasapogenin on differentiation), • or the cells were exposed to the differentiation medium for 10 days, yielding mature adipocytes, then exposed or not exposed to sarsasapogenin for 24 h (study of the effect of sarsasapogenin on maturation).
(§3) At each time point, the mRNA of the cells was extracted using a commercially available kit (Roche Kit V6—Extraction of total RNA). In parallel, solvent controls were run and subjected to extraction in the same manner. The expression profile of the gene sequences was determined using CodeLink Whole Genome chips for each sample of RNA purified. The values obtained were normalized on the controls.

mature adipocytes = experiment: Gene expression profile, effect on mature adipocytes (CodeLink Whole Genome chips); type: cell-based, Human; conditions: mature adipocytes exposed 24 h
Experimental: as §1, §2, §3

[5] = time points 8 and 24 h of differentiation
[6] = values normalized on the controls, time point not stated

How did the “Proliferation vs. Control” value (3T3-L1 cells [1]; 5 μM) turn out when `C[C@H]1CC[C@@]2(OC1)O[C@H]1C[C@H]3[C@@H]4CC[C@@H]5C[C@@H](O)CC[C@]5(C)[C@H]4CC[C@]3(C)[C@H]1[C@@H]2C` [Sarsasapogenin, (3β, 5β, 25-S)-Spirostan-3-ol] was run?
Its value is “+20.5% (p < 0.01)”.

And the “Proliferation vs. Control” value (3T3-L1 cells [1]; 10 μM)?
The value was “+31.6% (p < 0.01)”.

And the “Proliferation vs. Control” value (3T3-L1 cells [1]; 20 μM)?
Its value is “+35.2% (p < 0.01)”.

And the “Change in G3PDH activity vs. control (%)” value (3T3-L1 cells [2]; 5 μM)?
The value was “+103% (p < 0.01)”.

And the “Change in G3PDH activity vs. control (%)” value (3T3-L1 cells [2]; 10 μM)?
The value was “+201% (p < 0.01)”.

And the “Change in G3PDH activity vs. control (%)” value (3T3-L1 cells [2]; 15 μM)?
The value was “+429% (p < 0.01)”.

What about the “Change in G3PDH activity vs. control (%)” value (3T3-L1 cells [2]; 17.5 μM) of the same compound?
The value was “+535% (p < 0.01)”.

And the “lipid incorporation results in human adipocytes” value (human adipocytes)?
Its value is “reproduced”.

And the “% change in red oil content vs. control” value (3T3-L1 cells [3]; 5 μM)?
The value was “+135%”.

And the “% change in red oil content vs. control” value (3T3-L1 cells [3]; 10 μM)?
Its value is “+274%”.

And the “% change in red oil content vs. control” value (3T3-L1 cells [3]; 17.5 μM)?
The value was “+492%”.

What about the “% change in red oil content vs. control” value (3T3-L1 cells [3]; 17.5 μM, listed as sarsasapogenin) of the same compound?
Its value is “greater than 492%”.

What about the “activation of the gene coding for protein MNT (MAX binding protein)” value ([4]; after 8 and 24 h of differentiation, normalized on solvent controls) of the same compound?
Its value is “induces activation”.

And the “cyclin D3 gene up-regulation” value ([4]; normalized on the controls)?
The value was “markedly up-regulated”.

What about the “gene coding for Kruppel-like factor 5 (KLF5)” value ([4]; normalized on the controls) of the same compound?
Its value is “increase”.

What about the “induction of NPTXR / pentraxin-related gene” value ([4]; time point 24 h, normalized on the controls) of the same compound?
The value was greater than 7.

And the SLC2A5/GLUT5 gene activation [4, 5]?
Its SLC2A5/GLUT5 gene activation is “activated”.

And the “gene RAFTLIN activation” value [4, 5]?
Its value is “activated”.

What about the “induction of adipose differentiation-related protein (ADRP) or adipophilin” value ([4]; values normalized on the controls, study and time point not stated) of the same compound?
The value was greater than 4.

And the “gene COPS3 up-regulation” value [4, 6]?
Its value is greater than 5.

What about the “gene COPS5 up-regulation” value [4, 6] of the same compound?
The value was greater than 5.

And the “increase in KLK10 (kallikrein)” value [4, 6]?
The value was greater than 10.

And the “status of gene p21” value (mature adipocytes)?
The value was “activated status of gene p21 was maintained”.

Which “Proliferation vs. Control” value (3T3-L1 cells [1]; 10 μM) does the source give for `CCc1ccc(CCOc2ccc(CC3SC(=O)NC3=O)cc2)nc1` (stereo not shown) [pioglitazone, reference compound] here?
The value was “+49% (p < 0.01)”.

And the “% change in red oil content vs. control” value (3T3-L1 cells [3]; 10 μM)?
Its value is “+359%”.
